In one experiment the test system is H1975(L858R/T790M). Put plainly: H1975 cells proliferation assay. It is filed as cell-based. As to conditions: for IC50: Homo sapiens, read-out: H1975 IC50. Here is the method: (§1) Test 3 H1975 and HCC827 Cells Proliferation Assay
(§2) a) The medium was preheated in a 37° C. water bath in advance.
(§3) b) Remove the cryogenic vials from the liquid nitrogen tank, quickly put it into a 37° C. water bath, and completely melt it in 1 min.
(§4) c) Transfer the cell suspension to a 15 mL centrifuge tube containing 8 mL medium, centrifuge 1000 rpm, 5 min.
(§5) d) Discard the supernatant, resuspend the cells in 1 mL medium, and transfer to a 75 cm^2 flask containing 15 mL medium, culture the cells in an incubator at 37° C., 5% CO2.
(§6) b) Collect cell to a 15 mL centrifuged tube, centrifuge at 1000 rpm for 5 min. Discard the supernatant, count, and make the cell density at 1×10^4 cells/mL, then place it in a 37° C., 5% CO2 incubator.
(§7) b) The above compound solution was diluted 1:20 times with culture medium to prepare a 10 fold working solution;
(§8) a) Take cells in log phase growth, centrifuge at 1000 rpm for 5 min, then resuspend the cells with culture medium, then count cells;
(§9) b) Cells were seeded to 96-well cell culture plate with density at 2000 cells/well (suitable for H1975 cell) and at 2500 cells/well (suitable for HCC827 cell);
(§10) The blank control well was a culture medium (0.5% DMSO);
(§11) b) The cells were incubated for an additional 72 h in the incubator.
(§12) a) Remove the 96-well cell culture plate and add 50 μl of CTG reagent (CellTiter Glo kit, promega, Cat #G7573).
(§13) b) Plate was shaked for 2 min and then let it cool for 10 min at room temperature.
(§14) c) The Luminescence signal value was read using a PerkinElmer reader.
(§15) Experimental Data Analysis
(§16) Data were analyzed using GraphPad Prism 6.0 software to obtain a fitted curve of compound activity.
(§17) Y=Bottom+(Top−Bottom)/(1+10^((Log IC50−X)*HillSlope));
(§18) The cells proliferation assay results are expressed with IC50, shown as Table 2.

A further experiment concerns HCC827(Δ19del). Put plainly: HCC827 cells proliferation assay. In kind it is cell-based. The conditions noted are these: Homo sapiens, read-out: HCC827 IC50. On the procedure:
as §1, §2, §3, §4, §5, §6, §7, §8, §9, §10, §11, §12, §13, §14, §15, §16, §17, §18

The target in another experiment is EGFR Δ19del/T790M/C797S (Homo sapiens, UniProt P00533, T790M/C797S, form not given). Put plainly: Kinase assay (mobility shift) for EGFR Δ19del/T790M/C797S. It is filed as biochemical. The conditions noted are these: read-out: EGFR Δ 19del/T790M/C797S IC50. On the procedure:
(§19) Enzyme reaction protocol are as followed:
(§20) 1. Preparing 1* Kinase buffer as followed.
(§21) 2. Preparing Compound Concentration Gradient: Compounds were tested at a concentration of 300 nM, diluted to 100-fold final concentration in 100% DMSO solution in 96-well plates, and compounds were diluted 3 times with Precision, 10 concentrations. Each concentration of the compound was then further diluted to a 5-fold final concentration of the intermediate dilution solution using 1* Kinase buffer.
(§22) 3. 5 μL of each of the prepared intermediate dilution compounds was separately added to the compound wells of the 384-well plate, and each concentration was tested for duplicate wells; 5 μL of 5% DMSO was added to the negative control wells and the positive control wells, respectively.
(§23) 4. 2.5-fold final concentration of the kinase solution was prepared using 1*Kinase buffer.
(§24) 6. Centrifuge at 1000 rpm for 30 seconds, shake the reaction plate and incubate for 10 minutes at room temperature.
(§25) 8. 10 μL of a 2.5-fold final concentration of a mixed solution of ATP and a substrate was added to initiate the reaction.
(§26) 9. Centrifuge the 384-well plate at 1000 rpm for 30 seconds, mix by shaking, and incubate at room temperature for the corresponding time.
(§27) 10. Add 30 μL of the stop solution to stop the kinase reaction, centrifuge at 1000 rpm for 30 seconds, and mix by shaking.
(§28) 11. Read the conversion rate with Caliper EZ Reader.
(§29) Convert conversion values to inhibition values:
(§30) Percent inhibition=(max−conversion % sample)/(max−min)*100.
(§31) “max” stands for the mean value of the positive control well ratio; “min” stands for the mean value of the negative control well; conversion % sample: sample conversion reading.
(§32) Fit the data in log(inhibitor) vs. response Variable slope of GraphPad Prism 5 to obtain IC50 values.
(§33) Equation used is: Y=Bottom+(Top−Bottom)/(1+(IC50/X)*HillSlope)

The target in a further experiment is EGFR T790M/L858R (Homo sapiens, UniProt P00533, L858R/T790M). Put plainly: Kinase assay (mobility shift) for EGFR T790M/L858R. It is filed as biochemical. Here is the method:
as §19, §20, §21, §22, §23, §24, §25, §26, §27, §28, §29, §30, §31, §32, §33

For a further experiment, the target named is EGFR L858R (Homo sapiens, UniProt P00533, L858R). Put plainly: Kinase assay (mobility shift) for EGFR L858R. In kind it is biochemical. Here is the method:
as §19, §20, §21, §22, §23, §24, §25, §26, §27, §28, §29, §30, §31, §32, §33

Where [1] appears, read: NCI-H1975, cell proliferation, 72 h, CellTiter Glo, class symbols.
Where [2] appears, read: HCC827, cell proliferation, 72 h, CellTiter Glo, class symbols.

Where two headings read alike, the source gives them in different places.

EGFR T790M/L858R, sequence (P00533 25-1210 T790M/L858R): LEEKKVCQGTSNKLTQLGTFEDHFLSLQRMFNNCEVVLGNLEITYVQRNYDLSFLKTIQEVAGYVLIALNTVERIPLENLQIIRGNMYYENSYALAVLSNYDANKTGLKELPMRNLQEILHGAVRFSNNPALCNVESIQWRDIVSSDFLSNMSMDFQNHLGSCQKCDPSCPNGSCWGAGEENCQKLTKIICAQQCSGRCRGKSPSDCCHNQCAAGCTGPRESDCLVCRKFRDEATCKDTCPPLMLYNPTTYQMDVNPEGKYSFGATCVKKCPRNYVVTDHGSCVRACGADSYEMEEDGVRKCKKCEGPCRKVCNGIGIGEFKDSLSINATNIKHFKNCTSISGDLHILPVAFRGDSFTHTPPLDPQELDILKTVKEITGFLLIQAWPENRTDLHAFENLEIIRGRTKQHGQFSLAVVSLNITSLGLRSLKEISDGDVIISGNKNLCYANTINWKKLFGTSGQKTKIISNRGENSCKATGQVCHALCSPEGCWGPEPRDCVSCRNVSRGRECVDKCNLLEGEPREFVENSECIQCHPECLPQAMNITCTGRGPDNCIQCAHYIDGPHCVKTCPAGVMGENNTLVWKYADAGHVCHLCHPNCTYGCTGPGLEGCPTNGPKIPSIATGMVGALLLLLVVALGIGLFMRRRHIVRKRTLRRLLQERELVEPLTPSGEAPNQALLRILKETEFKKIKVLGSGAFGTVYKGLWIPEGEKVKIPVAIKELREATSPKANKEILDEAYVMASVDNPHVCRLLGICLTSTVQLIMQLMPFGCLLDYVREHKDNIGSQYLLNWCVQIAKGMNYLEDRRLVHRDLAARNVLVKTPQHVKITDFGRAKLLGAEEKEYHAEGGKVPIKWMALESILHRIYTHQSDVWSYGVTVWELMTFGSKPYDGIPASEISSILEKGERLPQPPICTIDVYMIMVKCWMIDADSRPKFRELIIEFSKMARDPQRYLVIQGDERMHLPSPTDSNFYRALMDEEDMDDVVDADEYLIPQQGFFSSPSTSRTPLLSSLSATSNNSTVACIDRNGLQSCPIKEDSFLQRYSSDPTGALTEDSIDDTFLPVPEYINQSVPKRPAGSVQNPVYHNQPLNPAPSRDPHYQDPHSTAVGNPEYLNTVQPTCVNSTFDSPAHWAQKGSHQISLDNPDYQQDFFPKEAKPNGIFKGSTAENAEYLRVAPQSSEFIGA
EGFR L858R, sequence (P00533 25-1210 L858R): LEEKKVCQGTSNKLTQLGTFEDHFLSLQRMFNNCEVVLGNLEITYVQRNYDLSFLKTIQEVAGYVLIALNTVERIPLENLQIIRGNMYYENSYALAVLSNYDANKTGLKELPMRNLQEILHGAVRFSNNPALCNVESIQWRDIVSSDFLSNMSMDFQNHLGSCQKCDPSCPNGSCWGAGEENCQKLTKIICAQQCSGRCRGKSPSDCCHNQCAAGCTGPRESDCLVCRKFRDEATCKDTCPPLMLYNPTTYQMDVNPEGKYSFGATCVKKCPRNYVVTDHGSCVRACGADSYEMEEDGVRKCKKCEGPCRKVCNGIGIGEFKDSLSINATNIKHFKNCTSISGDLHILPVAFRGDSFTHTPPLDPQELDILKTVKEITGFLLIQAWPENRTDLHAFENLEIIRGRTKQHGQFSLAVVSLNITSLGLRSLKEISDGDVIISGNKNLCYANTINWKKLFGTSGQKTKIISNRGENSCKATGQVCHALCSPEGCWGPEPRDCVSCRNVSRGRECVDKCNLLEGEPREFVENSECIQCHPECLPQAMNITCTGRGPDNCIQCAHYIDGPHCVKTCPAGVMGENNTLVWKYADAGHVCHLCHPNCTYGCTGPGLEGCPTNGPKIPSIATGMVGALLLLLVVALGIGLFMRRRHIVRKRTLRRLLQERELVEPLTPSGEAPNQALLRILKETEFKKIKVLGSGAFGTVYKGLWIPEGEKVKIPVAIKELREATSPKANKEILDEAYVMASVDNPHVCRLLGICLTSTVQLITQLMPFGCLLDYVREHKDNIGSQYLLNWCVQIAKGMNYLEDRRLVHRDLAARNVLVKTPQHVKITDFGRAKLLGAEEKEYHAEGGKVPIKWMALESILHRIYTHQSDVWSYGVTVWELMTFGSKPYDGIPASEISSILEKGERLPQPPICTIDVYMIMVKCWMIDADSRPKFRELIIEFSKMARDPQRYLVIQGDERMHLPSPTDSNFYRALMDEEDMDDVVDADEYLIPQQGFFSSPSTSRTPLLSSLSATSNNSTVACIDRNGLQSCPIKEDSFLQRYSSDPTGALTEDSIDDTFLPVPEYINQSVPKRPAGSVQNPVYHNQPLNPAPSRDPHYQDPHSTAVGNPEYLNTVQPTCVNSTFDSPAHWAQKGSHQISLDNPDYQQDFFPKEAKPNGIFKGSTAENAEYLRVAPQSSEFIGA
EGFR Δ19del/T790M/C797S, sequence (P00533 with tags, fused parts or gaps DEL746-750/T790M/C797S, form open): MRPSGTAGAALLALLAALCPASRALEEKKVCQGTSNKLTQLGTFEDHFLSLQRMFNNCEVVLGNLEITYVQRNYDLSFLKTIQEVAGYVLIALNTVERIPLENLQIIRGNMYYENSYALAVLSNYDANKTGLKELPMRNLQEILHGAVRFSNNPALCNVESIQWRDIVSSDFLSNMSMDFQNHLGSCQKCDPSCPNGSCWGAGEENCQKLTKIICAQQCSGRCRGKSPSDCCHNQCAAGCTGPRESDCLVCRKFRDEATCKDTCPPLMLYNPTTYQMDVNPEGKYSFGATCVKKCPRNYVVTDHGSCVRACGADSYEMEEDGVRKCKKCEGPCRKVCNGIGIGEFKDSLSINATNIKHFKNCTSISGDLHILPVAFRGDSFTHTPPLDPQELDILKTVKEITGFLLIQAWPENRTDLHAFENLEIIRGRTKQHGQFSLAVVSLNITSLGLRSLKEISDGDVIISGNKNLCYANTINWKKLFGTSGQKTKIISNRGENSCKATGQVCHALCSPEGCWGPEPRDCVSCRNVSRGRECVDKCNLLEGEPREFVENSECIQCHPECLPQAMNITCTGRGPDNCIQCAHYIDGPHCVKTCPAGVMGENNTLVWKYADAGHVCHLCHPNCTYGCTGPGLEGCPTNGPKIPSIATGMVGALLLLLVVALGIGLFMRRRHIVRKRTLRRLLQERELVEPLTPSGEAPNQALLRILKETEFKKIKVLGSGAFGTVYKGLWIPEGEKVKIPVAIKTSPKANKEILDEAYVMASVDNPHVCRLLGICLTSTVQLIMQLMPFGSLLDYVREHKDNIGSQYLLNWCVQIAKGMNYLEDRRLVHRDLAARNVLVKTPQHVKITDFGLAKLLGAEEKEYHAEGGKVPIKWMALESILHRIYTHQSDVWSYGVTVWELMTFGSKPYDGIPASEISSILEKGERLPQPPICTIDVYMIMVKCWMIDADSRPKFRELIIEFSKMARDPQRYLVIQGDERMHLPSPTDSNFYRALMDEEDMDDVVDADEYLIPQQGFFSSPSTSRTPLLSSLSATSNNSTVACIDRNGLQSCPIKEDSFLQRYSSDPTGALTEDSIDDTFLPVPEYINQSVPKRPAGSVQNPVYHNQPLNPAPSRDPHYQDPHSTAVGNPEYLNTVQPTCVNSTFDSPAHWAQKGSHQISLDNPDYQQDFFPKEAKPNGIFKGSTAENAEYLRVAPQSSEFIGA

For `C=CC(=O)Nc1cc(Nc2nccc(-c3cn(C)c4ccccc34)n2)c(OC)cc1N(C)CCN(C)C` [Comparative compound B, reference compound], the IC50 in the experiment with H1975(L858R/T790M) (NCI-H1975, 72 h) was less than 0.01 µM; with HCC827(Δ19del) (HCC827, 72 h), less than 0.01 µM. In the experiment on H1975(L858R/T790M) (summary in words of Table 2), the “inhibition of double mutant (L858R/T790M)” value was “higher inhibition”.

As for `C=CC(=O)Nc1cc(Nc2ncc(Cl)c(Nc3ccccc3P(C)(C)=O)n2)ccc1N1CC2(CCC(N(C)C)CC2)C1` [Compound 2, N-(5-((5-chloro-4-((2-(dimethylphosphoryl)phenyl)amino)pyrimidin-2-yl)amino)-2-(7-(dimethylamino)-2-azaspiro[3.5]nonan-2-yl)phenyl)acrylamide], the IC50 at EGFR Δ19del/T790M/C797S was less than 0.01 µM; on EGFR T790M/L858R, less than 0.01 µM; at EGFR L858R, 0.01 to 0.1 µM.

For `C=CC(=O)Nc1cc(Nc2ncc(Cl)c(Nc3ccccc3P(C)(C)=O)n2)ccc1N1CC2(CC(N(C)C)C2)C1` [Compound 3, N-(5-((5-chloro-4-((2-(dimethylphosphoryl)phenyl)amino)pyrimidin-2-yl)amino)-2-(6-(dimethylamino)-2-azaspiro[3.3]heptan-2-yl)phenyl)acrylamide], the values for the IC50 at EGFR Δ19del/T790M/C797S, on EGFR T790M/L858R and at EGFR L858R were less than 0.01 µM, less than 0.01 µM and 0.01 to 0.1 µM, respectively.

As to `C=CC(=O)Nc1cc(Nc2nccc(Nc3ccccc3P(C)(C)=O)n2)ccc1N1CCC2(CC1)CC(N(C)C)C2` [Compound 4, N-(2-(2-(dimethylamino)-7-azaspiro[3.5]nonan-7-yl)-5-((4-((2-(dimethylphosphoryl)phenyl)amino)pyrimidin-2-yl)amino)phenyl)acrylamide], the IC50 at EGFR Δ19del/T790M/C797S was less than 0.01 µM; on EGFR T790M/L858R it was less than 0.01 µM; on EGFR L858R, 0.01 to 0.1 µM.

Take `C=CC(=O)Nc1cc(Nc2ncc(Br)c(Nc3ccc4nccnc4c3P(C)(C)=O)n2)c(OC)cc1N1CCC(N2CCN(C)CC2)CC1` [Compound 13, N-(5-((5-bromo-4-((5-(dimethylphosphoryl)quinoxalin-6-yl)amino)pyrimidin-2-yl)amino)-4-methoxy-2-(4-(4-methylpiperazin-1-yl)piperidin-1-yl)phenyl)acrylamide]: the IC50 in the experiment with H1975(L858R/T790M) (setting [1]) and in the experiment on HCC827(Δ19del) (setting [2]) was 0.01 to 0.05 µM each time.

As to `C=CC(=O)Nc1cc(Nc2ncc(C)c(Nc3ccccc3P(C)(C)=O)n2)c(OC)cc1N1CCC(N2CCN(C)CC2)CC1` [Compound 22, N-(5-((4-((2-(dimethylphosphoryl)phenyl)amino)-5-methylpyrimidin-2-yl)amino)-4-methoxy-2-(4-(4-methylpiperazin-1-yl)piperidin-1-yl)phenyl)acrylamide], the IC50 with HCC827(Δ19del) (setting [2]) is less than 0.01 µM; at EGFR Δ19del/T790M/C797S, less than 0.01 µM; at EGFR T790M/L858R, less than 0.01 µM; on EGFR L858R, 0.01 to 0.1 µM.

Take `C=CC(=O)Nc1cc(Nc2ncc(Cl)c(Nc3ccccc3P(C)(C)=O)n2)c(OC)cc1N1CCC(N2CCN(C)CC2)CC1` [Compound 24, N-(5-((5-chloro-4-((2-(dimethylphosphoryl)phenyl)amino)pyrimidin-2-yl)amino)-4-methoxy-2-(4-(4-methylpiperazin-1-yl)piperidin-1-yl)phenyl)acrylamide]: the IC50 with HCC827(Δ19del) (setting [2]) is 0.01 to 0.05 µM; at EGFR Δ19del/T790M/C797S, less than 0.01 µM; at EGFR T790M/L858R, less than 0.01 µM; at EGFR L858R, 0.01 to 0.1 µM.

Consider `C=CC(=O)Nc1cc(Nc2ncc(Cl)c(Nc3ccccc3P(C)(C)=O)n2)c(OC)cc1N(C)CCN(C)C` [Compound 25, N-(5-((5-chloro-4-((2-(dimethylphosphoryl)phenyl)amino)pyrimidin-2-yl)amino)-2-((2-(dimethylamino)ethyl)(methyl)amino)-4-methoxyphenyl)acrylamide], for which the IC50 in the experiment with HCC827(Δ19del) (setting [2]) is less than 0.01 µM.

As for `C=CC(=O)Nc1cc(Nc2ncc(Cl)c(Nc3ccccc3P(C)(C)=O)n2)c(OC)cc1N1CC2(CCC(N(C)C)CC2)C1` [Compound 26, N-(5-((5-chloro-4-((2-(dimethylphosphoryl)phenyl)amino)pyrimidin-2-yl)amino)-2-(7-(dimethylamino)-2-azaspiro[3.5]nonan-2-yl)-4-methoxyphenyl)acrylamide], the IC50 on EGFR Δ19del/T790M/C797S was less than 0.01 µM; on EGFR T790M/L858R it was less than 0.01 µM; on EGFR L858R, 0.01 to 0.1 µM.

Consider `C=CC(=O)Nc1cc(Nc2ncc(F)c(Nc3ccccc3P(C)(C)=O)n2)c(OC)cc1N(C)CCN(C)C` [Compound 27, N-(2-((2-(dimethylamino)ethyl)(methyl)amino)-5-((4-((2-(dimethylphosphoryl)phenyl)amino)-5-fluoropyrimidin-2-yl)amino)-4-methoxyphenyl)acrylamide], for which the IC50 in the experiment with H1975(L858R/T790M) (setting [1]) and in the experiment on HCC827(Δ19del) (setting [2]) was less than 0.01 µM in each case.

Take `C=CC(=O)Nc1cc(Nc2ncc(F)c(Nc3ccccc3P(C)(C)=O)n2)c(OC)cc1N1CCC(N2CCN(C)CC2)CC1` [Compound 28, N-(5-((4-((2-(dimethylphosphoryl)phenyl)amino)-5-fluoropyrimidin-2-yl)amino)-4-methoxy-2-(4-(4-methylpiperazin-1-yl)piperidin-1-yl)phenyl)acrylamide]: the IC50 in the experiment with HCC827(Δ19del) (setting [2]) fell in the range of 0.01 to 0.05 µM; at EGFR Δ19del/T790M/C797S, 0.01 to 0.1 µM; on EGFR T790M/L858R, 0.01 to 0.1 µM; at EGFR L858R, 0.01 to 0.1 µM.

On to `C=CC(=O)Nc1cc(Nc2ncc(Cl)c(Nc3ccccc3P(C)(C)=O)n2)c(C)cc1N1CCC2(CC1)CC(N(C)C)C2` [Compound 31, N-(5-((5-chloro-4-((2-(dimethylphosphoryl)phenyl)amino)pyrimidin-2-yl)amino)-2-(2-(dimethylamino)-7-azaspiro[3.5]nonan-7-yl)-4-methylphenyl)acrylamide], for which the IC50 in the experiment with H1975(L858R/T790M) (setting [1]) and with HCC827(Δ19del) (setting [2]) was 0.01 to 0.05 µM each time.

As to `C=CC(=O)Nc1cc(Nc2nccc(Nc3ccccc3P(C)(C)=O)n2)ccc1N1CCC(N2CCN(C)CC2)CC1` [Compound 38, N-(5-((4-((2-(dimethylphosphoryl)phenyl)amino)pyrimidin-2-yl)amino)-2-(4-(4-methylpiperazin-1-yl)piperidin-1-yl)phenyl)acrylamide], the IC50 on EGFR Δ19del/T790M/C797S, on EGFR T790M/L858R and at EGFR L858R was 0.01 to 0.1 µM in each case.

For `C=CC(=O)Nc1cc(Nc2nccc(Nc3ccccc3P(C)(C)=O)n2)c(OC)cc1N(C)CCN(C)C` [Compound 39, N-(2-((2-(dimethylamino)ethyl)(methyl)amino)-5-((4-((2-(dimethylphosphoryl)phenyl)amino)pyrimidin-2-yl)amino)-4-methoxyphenyl)acrylamide], the figures for the IC50 with H1975(L858R/T790M) (setting [1]) and with HCC827(Δ19del) (setting [2]) were 0.01 to 0.05 µM and less than 0.01 µM, respectively.

Consider `C=CC(=O)Nc1cc(Nc2nccc(Nc3ccccc3P(C)(C)=O)n2)c(OC)cc1N1CCC(N2CCN(C)CC2)CC1` [Compound 40, N-(5-((4-((2-(dimethylphosphoryl)phenyl)amino)pyrimidin-2-yl)amino)-4-methoxy-2-(4-(4-methylpiperazin-1-yl)piperidin-1-yl)phenyl)acrylamide], for which the IC50 on EGFR Δ19del/T790M/C797S, at EGFR T790M/L858R and at EGFR L858R was 0.01 to 0.1 µM each time.
